Values of other authors as cited in patent US20090148399A1, “Controlled release attractant for gravid female mosquitoes” (priority 2007, published 2009).

System: gravid female C. quinquefasciatus
Conditions: gravid female Culex quinquefasciatus

| Structure (SMILES) | oviposition attractancy |
| --- | --- |
| Cc1c[nH]c2ccccc12 [3-Methyl indole] | highly effective attractant |
| CCCCCCCCCC[C@H](OC(C)=O)[C@H]1CCCC(=O)O1 [(5R,6S)-6-acetetoxy-5-hexadecanolide] | attracts other females of the same species to deposit their eggs gregariously |
